Test results reported in ChEMBL document CHEMBL1201861, “Genomics of Drug Sensitity in Cancer screening data, Wellcome Trust Sanger Institute”.

Tests used:
Assay in all cases: cells
Settings in all cases: Homo sapiens
MPP-89 = type: functional, cell-based
Description: SANGER: Inhibition of human MPP-89 cell growth in a cell viability assay.

LAMA-84 = type: functional, cell-based
Description: SANGER: Inhibition of human LAMA-84 cell growth in a cell viability assay.

KM-H2 = type: functional, cell-based
Description: SANGER: Inhibition of human KM-H2 cell growth in a cell viability assay.

EW-11 = type: functional, cell-based
Description: SANGER: Inhibition of human EW-11 cell growth in a cell viability assay.

KNS-81-FD = type: functional, cell-based
Description: SANGER: Inhibition of human KNS-81-FD cell growth in a cell viability assay.

D-263MG = type: functional, cell-based
Description: SANGER: Inhibition of human D-263MG cell growth in a cell viability assay.

A498 = type: functional, cell-based
Description: SANGER: Inhibition of human A498 cell growth in a cell viability assay.

no-10 = type: functional, cell-based
Description: SANGER: Inhibition of human no-10 cell growth in a cell viability assay.

AM-38 = type: functional, cell-based
Description: SANGER: Inhibition of human AM-38 cell growth in a cell viability assay.

EKVX = type: functional, cell-based
Description: SANGER: Inhibition of human EKVX cell growth in a cell viability assay.

QIMR-WIL = type: functional, cell-based
Description: SANGER: Inhibition of human QIMR-WIL cell growth in a cell viability assay.

EW-13 = type: functional, cell-based
Description: SANGER: Inhibition of human EW-13 cell growth in a cell viability assay.

NCI-H23 = type: functional, cell-based
Description: SANGER: Inhibition of human NCI-H23 cell growth in a cell viability assay.

KU812 cell line = type: functional, cell-based
Description: SANGER: Inhibition of human KU812 cell growth in a cell viability assay.

SH-4 = type: functional, cell-based
Description: SANGER: Inhibition of human SH-4 cell growth in a cell viability assay.

HAL-01 = type: functional, cell-based
Description: SANGER: Inhibition of human HAL-01 cell growth in a cell viability assay.

HEL = type: functional, cell-based
Description: SANGER: Inhibition of human HEL cell growth in a cell viability assay.

TE-5 = type: functional, cell-based
Description: SANGER: Inhibition of human TE-5 cell growth in a cell viability assay.

COR-L88 = type: functional, cell-based
Description: SANGER: Inhibition of human COR-L88 cell growth in a cell viability assay.

EW-3 = type: functional, cell-based
Description: SANGER: Inhibition of human EW-3 cell growth in a cell viability assay.

U-87 MG = type: functional, cell-based, U-87MG ATCC
Description: SANGER: Inhibition of human U-87-MG cell growth in a cell viability assay.

SBC-1 = type: functional, cell-based
Description: SANGER: Inhibition of human SBC-1 cell growth in a cell viability assay.

RH-1 = type: functional, cell-based
Description: SANGER: Inhibition of human RH-1 cell growth in a cell viability assay.

MHH-NB-11 = type: functional, cell-based
Description: SANGER: Inhibition of human MHH-NB-11 cell growth in a cell viability assay.

DOHH-2 = type: functional, cell-based
Description: SANGER: Inhibition of human DOHH-2 cell growth in a cell viability assay.

SW684 = type: functional, cell-based
Description: SANGER: Inhibition of human SW684 cell growth in a cell viability assay.

Lu-65 = type: functional, cell-based
Description: SANGER: Inhibition of human LU-65 cell growth in a cell viability assay.

J-RT3-T3-5 = type: functional, cell-based
Description: SANGER: Inhibition of human J-RT3-T3-5 cell growth in a cell viability assay.

SCH = type: functional, cell-based
Description: SANGER: Inhibition of human SCH cell growth in a cell viability assay.

EW-16 = type: functional, cell-based
Description: SANGER: Inhibition of human EW-16 cell growth in a cell viability assay.

TE-1 = type: functional, cell-based
Description: SANGER: Inhibition of human TE-1 cell growth in a cell viability assay.

SW872 = type: functional, cell-based
Description: SANGER: Inhibition of human SW872 cell growth in a cell viability assay.

TE-12 = type: functional, cell-based
Description: SANGER: Inhibition of human TE-12 cell growth in a cell viability assay.

TGBC1TKB = type: functional, cell-based
Description: SANGER: Inhibition of human TGBC1TKB cell growth in a cell viability assay.

GAK = type: functional, cell-based
Description: SANGER: Inhibition of human GAK cell growth in a cell viability assay.

HCC2218 = type: functional, cell-based
Description: SANGER: Inhibition of human HCC2218 cell growth in a cell viability assay.

K5 = type: functional, cell-based
Description: SANGER: Inhibition of human K5 cell growth in a cell viability assay.

COLO-684 = type: functional, cell-based
Description: SANGER: Inhibition of human COLO-684 cell growth in a cell viability assay.

COLO-824 = type: functional, cell-based
Description: SANGER: Inhibition of human COLO-824 cell growth in a cell viability assay.

NCI-H1770 = type: functional, cell-based
Description: SANGER: Inhibition of human NCI-H1770 cell growth in a cell viability assay.

IST-MES1 = type: functional, cell-based
Description: SANGER: Inhibition of human IST-MES1 cell growth in a cell viability assay.

C2BBe1 = type: functional, cell-based
Description: SANGER: Inhibition of human C2BBe1 cell growth in a cell viability assay.

IST-MEL1 = type: functional, cell-based
Description: SANGER: Inhibition of human IST-MEL1 cell growth in a cell viability assay.

NEC8 = type: functional, cell-based
Description: SANGER: Inhibition of human NEC8 cell growth in a cell viability assay.

ES8 = type: functional, cell-based
Description: SANGER: Inhibition of human ES8 cell growth in a cell viability assay.

no-11 = type: functional, cell-based
Description: SANGER: Inhibition of human no-11 cell growth in a cell viability assay.

ETK-1 = type: functional, cell-based
Description: SANGER: Inhibition of human ETK-1 cell growth in a cell viability assay.

SHP77 = type: functional, cell-based, SHP-77
Description: SANGER: Inhibition of human SHP-77 cell growth in a cell viability assay.

LNCaP-Clone-FGC = type: functional, cell-based
Description: SANGER: Inhibition of human LNCaP-Clone-FGC cell growth in a cell viability assay.

SK-MEL-2 = type: functional, cell-based
Description: SANGER: Inhibition of human SK-MEL-2 cell growth in a cell viability assay.

SW 954 = type: functional, cell-based
Description: SANGER: Inhibition of human SW954 cell growth in a cell viability assay.

NCI-H747 = type: functional, cell-based
Description: SANGER: Inhibition of human NCI-H747 cell growth in a cell viability assay.

COLO-668 = type: functional, cell-based
Description: SANGER: Inhibition of human COLO-668 cell growth in a cell viability assay.

HDLM-2 = type: functional, cell-based
Description: SANGER: Inhibition of human HDLM-2 cell growth in a cell viability assay.

COLO-800 = type: functional, cell-based
Description: SANGER: Inhibition of human COLO-800 cell growth in a cell viability assay.

GI-1 = type: functional, cell-based
Description: SANGER: Inhibition of human GI-1 cell growth in a cell viability assay.

ES6 = type: functional, cell-based
Description: SANGER: Inhibition of human ES6 cell growth in a cell viability assay.

SNU1 = type: functional, cell-based
Description: SANGER: Inhibition of human NCI-SNU-1 cell growth in a cell viability assay.

NOS-1 = type: functional, cell-based
Description: SANGER: Inhibition of human NOS-1 cell growth in a cell viability assay.

ATN-1 = type: functional, cell-based
Description: SANGER: Inhibition of human ATN-1 cell growth in a cell viability assay.

HD-MY-Z = type: functional, cell-based
Description: SANGER: Inhibition of human HD-MY-Z cell growth in a cell viability assay.

NCI-H69 = type: functional, cell-based
Description: SANGER: Inhibition of human NCI-H69 cell growth in a cell viability assay.

KE-37 = type: functional, cell-based
Description: SANGER: Inhibition of human KE-37 cell growth in a cell viability assay.

SF-126 = type: functional, cell-based
Description: SANGER: Inhibition of human SF126 cell growth in a cell viability assay.

NB10 = type: functional, cell-based
Description: SANGER: Inhibition of human NB10 cell growth in a cell viability assay.

A704 = type: functional, cell-based

## CCn1c(-c2nonc2N)nc2cnc(Oc3cccc(NC(=O)c4ccc(OCCN5CCOCC5)cc4)c3)cc21 [GSK-269962A]
MPP-89
  IC50: 1260 nM
LAMA-84
  IC50: > 2500 nM
KM-H2
  IC50: > 2500 nM
EW-11
  IC50: > 2500 nM
KNS-81-FD
  IC50: > 2500 nM
D-263MG
  IC50: 85.1 nM
A498
  IC50: > 2500 nM
no-10
  IC50: 668 nM
AM-38
  IC50: > 2500 nM
EKVX
  IC50: > 2500 nM
QIMR-WIL
  IC50: 490 nM
EW-13
  IC50: > 2500 nM
NCI-H23
  IC50: > 2500 nM
KU812 cell line
  IC50: > 2500 nM
SH-4
  IC50: > 2500 nM
HAL-01
  IC50: > 2500 nM
HEL
  IC50: > 2500 nM
TE-5
  IC50: > 2500 nM
COR-L88
  IC50: > 2500 nM
EW-3
  IC50: > 2500 nM
U-87 MG
  IC50: > 2500 nM
SBC-1
  IC50: > 2500 nM
RH-1
  IC50: > 2500 nM
MHH-NB-11
  IC50: 66.9 nM
DOHH-2
  IC50: > 2500 nM
SW684
  IC50: > 2500 nM
Lu-65
  IC50: > 2500 nM
J-RT3-T3-5
  IC50: > 2500 nM
SCH
  IC50: > 2500 nM
EW-16
  IC50: > 2500 nM
TE-1
  IC50: > 2500 nM
SW872
  IC50: 887 nM
TE-12
  IC50: > 2500 nM
TGBC1TKB
  IC50: > 2500 nM
GAK
  IC50: > 2500 nM
HCC2218
  IC50: > 2500 nM
K5
  IC50: > 2500 nM
COLO-684
  IC50: > 2500 nM
COLO-824
  IC50: > 2500 nM
NCI-H1770
  IC50: > 2500 nM
IST-MES1
  IC50: > 2500 nM
C2BBe1
  IC50: > 2500 nM
IST-MEL1
  IC50: > 2500 nM
NEC8
  IC50: > 2500 nM
ES8
  IC50: 819 nM
no-11
  IC50: > 2500 nM
ETK-1
  IC50: > 2500 nM
SHP77
  IC50: > 2500 nM
LNCaP-Clone-FGC
  IC50: > 2500 nM
SK-MEL-2
  IC50: > 2500 nM
SW 954
  IC50: > 2500 nM
NCI-H747
  IC50: > 2500 nM
COLO-668
  IC50: > 2500 nM
HDLM-2
  IC50: > 2500 nM
COLO-800
  IC50: > 2500 nM
GI-1
  IC50: 5.23 nM
ES6
  IC50: 247 nM
SNU1
  IC50: > 2500 nM
NOS-1
  IC50: > 2500 nM
ATN-1
  IC50: > 2500 nM
HD-MY-Z
  IC50: > 2500 nM
NCI-H69
  IC50: > 2500 nM
KE-37
  IC50: > 2500 nM
SF-126
  IC50: > 2500 nM
NB10
  IC50: 138 nM
